The values that follow are results of earlier work, collected in article PMC11235333, “Glucagon-like peptide-1 stimulates acute secretion of pro-atrial natriuretic peptide from the isolated, perfused pig lung exposed to warm ischemia” (Frontiers in Transplantation, 2022).

For the data set, the system named is lipopolyssacharide induced endotoxemia in rats. The conditions noted are these: lipopolysaccharide induced endotoxemia, after 3 h, ref Yanay et al. The procedure: In studies with 24 h EVLP and transplantation of donor lungs, a rise of IL-8 concentration, proportional to the duration of warm ischaemia, was observed ([78], [79]). In the majority of studies investigating the anti-inflammatory effects of GPL-1 in the lungs, treatment was given more than 6 ...

In the case of exendin-4, the Inflammatory cytokines entry is “decreased IL-1α, IL-1β, IL-6, TNFα and IFNγ but not IL-10”.
